Molecules are shown by their SMILES. “And” between values parts separate entries of the source, which are not always exact repeats. Identical values can stand only once.

These results are taken from publication PMC9188596, “Structural basis of resistance to herbicides that target acetohydroxyacid synthase” (Nature Communications, 2022).

Experiment [1] deals with T1, AtAHAS P197T mutant (Arabidopsis thaliana, UniProt P17597, P197T). As to the kind of experiment: biochemical. The procedure: (§1) Standard assays were performed using a continuous spectrophotometric method measuring the disappearance of pyruvate. The standard buffer contained 50 mM potassium phosphate, pH 7.2, 1 mM ThDP, 10 mM MgCl2, and 10 µM FAD. The concentration of pyruvate was in the range 100–160 mM, as described in the text, methods, or figure legends.
(§2) Supplementary Figure 6. Measurement of the Ki values for WT AtAHAS and the mutants.
(§3) The error bars represent the standard error of the mean of two independent replicates. [I] =
(§4) inhibitor concentration. Source data are provided with this paper.
(§5) (1 picture or pasted object on this page, not shown here)

In experiment [2] the target is T2, AtAHAS P197L mutant (Arabidopsis thaliana, UniProt P17597, P197L). As to the kind of experiment: biochemical. The procedure: as §1, §2, §3, §4, §5
Experiment [3] deals with T3, AtAHAS W574L mutant (Arabidopsis thaliana, UniProt P17597, W574L). As to the kind of experiment: biochemical. The procedure: as §1, §2, §3, §4, §5
In experiment [4] the target is T4, AtAHAS S653T mutant (Arabidopsis thaliana, UniProt P17597, S653T). As to the kind of experiment: biochemical. The procedure:
as §1, §2, §3, §4, §5

The target of experiment [5] is T5, WT AtAHAS (Arabidopsis thaliana, UniProt P17597). The format is biochemical. The procedure: as §1
(§6) AtAHAS was assayed in the standard assay buffer containing 160 mM pyruvate, at 30 °C. For AtAHAS activation the progress curve corresponding to the lag-phase was fitted to Eq. (8) of Lonhienne et al.[14]. For the time dependent accumulative inhibition of AtAHAS the progress curves were fitted to Equation 9 of Lonhienne et al.[12].
Supplementary Figure 8. Measurement of the rate constants of accumulative inhibition for WT AtAHAS and its mutants. The progress curves were fitted to the equation of accumulative inhibition (Equation 7 2). The rate constants of enzyme inactivation ( kiapp) and enzyme recovery (k3) were measured in triplicate. Source data are provided with this paper.

Experiment [6] deals with T1, AtAHAS P197T mutant. The format is biochemical. The following applies: P197T, NAI = no accumulative inhibition detected. The procedure: as §1, §6
(§7) Supplementary Figure 8. Measurement of the rate constants of accumulative inhibition for WT AtAHAS and its mutants. The progress curves were fitted to the equation of accumulative inhibition (Equation 7 2). The rate constants of enzyme inactivation ( kiapp) and enzyme recovery (k3) were measured in triplicate. Source data are provided with this paper. […]

For experiment [7], the target named is T2, AtAHAS P197L mutant. The class given is biochemical. To be noted: NAI = no accumulative inhibition detected. The procedure:
as §1, §6, §7

The target in experiment [8] is T3, AtAHAS W574L mutant. The class given is biochemical. The following applies: NAI = no accumulative inhibition detected. The procedure:
as §1, §6, §7

Experiment [9] addresses T4, AtAHAS S653T mutant. The class given is biochemical. The procedure:
as §1, §6, §7

Experiment [10] has as its target T5, WT AtAHAS. As to the kind of experiment: Ki of herbicides, continuous spectrophotometric AHAS assay. The class given is biochemical. The procedure: as §1, §2, §3, §4, §5
For experiment [11], the target named is T1, AtAHAS P197T mutant. As to the kind of experiment: Inhibition of AHAS activity by ubiquinone Q0. The format is biochemical. The following applies: read-out: % inhibition of AHAS activity by 0.5 mM Q0. The procedure: (§8) Next, we investigated how the mutants responded to regulation by redox signaling molecules using ubiquinone Q0 (Q0) as an example[14].
(§9) Supplementary Figure 5. Inhibition of WT AtAHAS and the mutants by Q0. AtAHAS was incubated with 100 mM pyruvate at 30°C. After reaching full activation, the inhibition reaction was initiated by addition of 0.5 mM Q0 to the sample cell. After seven minutes incubation with Q0, 1 mM DTT was added to reduce the remaining Q0, triggering re-activation of the enzyme.
(§10) Source data are provided with this paper.
as §5

The target of experiment [12] is T5, WT AtAHAS. As to the kind of experiment: Inhibition of AHAS activity by ubiquinone Q0. The class given is biochemical. To be noted: read-out: % inhibition of AHAS activity by 0.5 mM Q0. The procedure:
as §8, §9, §10, §5

For experiment [13], the target named is T2, AtAHAS P197L mutant. As to the kind of experiment: Inhibition of AHAS activity by ubiquinone Q0. The class given is biochemical. To be noted: read-out: % inhibition of AHAS activity by 0.5 mM Q0. The procedure:
as §8, §9, §10, §5

The target of experiment [14] is T3, AtAHAS W574L mutant. As to the kind of experiment: Inhibition of AHAS activity by ubiquinone Q0. The format is biochemical. To be noted: read-out: % inhibition of AHAS activity by 0.5 mM Q0. The procedure: as §8, §9, §10, §5
Experiment [15] addresses T4, AtAHAS S653T mutant. As to the kind of experiment: Inhibition of AHAS activity by ubiquinone Q0. The following applies: read-out: % inhibition of AHAS activity by 0.5 mM Q0. The format is biochemical. The procedure:
as §8, §9, §10, §5

Setting [16] is: Ki (Supplementary Figure 6), P197T, fit of % activity remaining vs [I], two independent replicates.
The mark [17] stands for this setting: Ki, P197T mutant, ± standard error of the mean.
The mark [18] stands for this setting: Ki (Supplementary Figure 6), P197L, fit of % activity remaining vs [I], two independent replicates.
[19] abbreviates: Ki, P197L mutant, ± standard error of the mean.
The mark [20] stands for this setting: Ki, W574L mutant, ± standard error of the mean.
The mark [21] stands for this setting: Ki, S653T mutant, ± standard error of the mean.
Setting [22] is: individual replicate of triplicate.
Where [23] appears, read: S653T, individual replicate of triplicate.
Where [24] appears, read: Ki, WT AtAHAS, ± standard error of the mean.

In the case of `COc1cc(OC)nc(NC(=O)NS(=O)(=O)N(C)S(C)(=O)=O)n1` [AS, amidosulfuron], the Ki on AtAHAS P197T mutant [1] (setting [16]) worked out at 61400 ± 8920 nM; at AtAHAS P197T mutant [1] (setting [17]), 61400 ± 8900 nM; at AtAHAS P197L mutant [2] (setting [18]), 93500 ± 17100 nM; on AtAHAS P197L mutant [2] (setting [19]), 93500 ± 17100 nM; at AtAHAS W574L mutant [3] (Ki (Supplementary Figure 6), W574L, fit of % activity remaining vs [I], two independent replicates), 871000 ± 66500 nM; at AtAHAS W574L mutant [3] (setting [20]), 870000 ± 60000 nM. Besides, the Ki at AtAHAS S653T mutant [4] (setting [21]) was found to be 492 ± 25 nM; on WT AtAHAS [10] (setting [24]) it was 4200 ± 600 nM. For the same compound, the “kiapp/k3 (efficiency of accumulative inhibition)” value at WT AtAHAS [5] was 20; at AtAHAS P197T mutant [6], “NAI”; at AtAHAS P197L mutant [7], “NAI”; on AtAHAS W574L mutant [8], “NAI”; on AtAHAS S653T mutant [9] (S653T), 95. Also, the “k3 (rate of recovery)” value at WT AtAHAS [5] (160 mM pyruvate, 30 °C, ± SEM) was 0.02 ± 0.001 min⁻¹; at AtAHAS P197T mutant [6] (160 mM pyruvate, 30 °C), “NAI”; at AtAHAS P197L mutant [7] (160 mM pyruvate, 30 °C), “NAI”; at AtAHAS W574L mutant [8] (160 mM pyruvate, 30 °C), “NAI”; at AtAHAS S653T mutant [9] (S653T, 160 mM pyruvate, 30 °C, ± SEM), 0.02 ± 0.002 min⁻¹. In addition, the “kiapp (apparent rate of enzyme inactivation)” value was 0.39 ± 0.06 min⁻¹ on WT AtAHAS [5] (160 mM pyruvate, 30 °C, ± SEM); “NAI” on AtAHAS P197T mutant [6] (160 mM pyruvate, 30 °C); “NAI” at AtAHAS P197L mutant [7] (160 mM pyruvate, 30 °C); “NAI” at AtAHAS W574L mutant [8] (160 mM pyruvate, 30 °C). In addition, the “k3, single progress curve (Supplementary Figure 8)” value was 0.021 min-1 and 0.02 min-1 (2×) at WT AtAHAS [5] (setting [22]); 0.02 min⁻¹ and 0.023 min⁻¹ and 0.021 min⁻¹ at AtAHAS S653T mutant [9] (setting [23]). Further, the “kiapp, single progress curve (Supplementary Figure 8)” value is 0.34 min⁻¹ and 0.46 min⁻¹ and 0.36 min⁻¹ on WT AtAHAS [5] (setting [22]); 1.93 min⁻¹ and 1.94 min⁻¹ and 2.21 min⁻¹ on AtAHAS S653T mutant [9] (setting [23]). Besides, at AtAHAS S653T mutant [9] (S653T vs WT), the “efficiency of accumulative inhibition (kiapp/k3) compared to WT (in words)” value is reported as “increased”.
On to `COc1cc(OC)n2nc(S(=O)(=O)Nc3c(Cl)ccc(C)c3Cl)nc2n1` [MT, metosulam], for which the Ki on AtAHAS P197T mutant [1] (setting [16]) was 1130 ± 130 nM; at AtAHAS P197T mutant [1] (setting [17]), 1130 ± 130 nM; at AtAHAS P197L mutant [2] (setting [18]) it was 1320 ± 131 nM; on AtAHAS P197L mutant [2] (setting [19]), 1320 ± 130 nM; on AtAHAS W574L mutant [3] (setting [20]), 39300 ± 3900 nM; on AtAHAS S653T mutant [4] (Ki (Supplementary Figure 6), S653T, fit of % activity remaining vs [I], two independent replicates) it was 66 ± 5.64 nM. Moreover, the Ki worked out at 66 ± 5.6 nM on AtAHAS S653T mutant [4] (setting [21]); 28.7 ± 11.2 nM on WT AtAHAS [10] (Ki (Supplementary Figure 6), Wild type AtAHAS, fit of % activity remaining vs [I], two independent replicates); 29 ± 11.2 nM at WT AtAHAS [10] (setting [24]).
As to `COC1=C(OC)C(=O)C(C)=CC1=O` [Q0, ubiquinone Q0], the inhibition at 500 µM at AtAHAS P197T mutant [11] is 91%; on WT AtAHAS [12], 82%; at AtAHAS P197L mutant [13], 89%; on AtAHAS W574L mutant [14], 97%; on AtAHAS S653T mutant [15], 85%.

Broadly, the Ki is the dissociation constant of the complex between target and ligand, obtained from inhibition or displacement. A higher Ki goes with weaker binding. One may read the inhibition as the change of the read-out against control, counted positive when it falls.
